Patent publication US20050079529A1, “Very large scale immobilized polymer synthesis” (Affymetrix, INC., priority 1989, published 2005)
Square brackets hold non-standard residues; d marks the D form. Ends that are not written are not given here.

Key:
[1] = system: Herz antibody; assay: YGGFL/GGFL checkerboard slide exposed to Herz antibody and goat anti-mouse fluorescein conjugate; assay type: binding; settings: 500×500 μm mask
Procedure: A first antibody, known as the Herz antibody, was applied to the surface of the slide for 45 minutes at 2 μg/ml in a supercocktail (containing 1% BSA and 1% ovalbumin also in this case). A second antibody, goat anti-mouse fluorescein conjugate, was then added at 2 μg/ml in the supercocktail buffer, and allowed to incubate for 2 hours.
Monomer-by-monomer synthesis of YGGFL and GGFL in alternate squares was performed on a slide in a checkerboard pattern and the resulting slide was exposed to the Herz antibody. This experiment and the results thereof are illustrated in FIGS. 13A, 13B, 13C, and 13D.
In FIG. 13A, a slide is shown which is derivatized with t-BOC-aminopropyl-triethoxysilane. The slide was treated with TFA to remove the t-BOC protecting group. t-BOC-6-aminocaproic acid was then coupled onto the aminopropyl groups. The aminocaproic acid serves as a spacer between the aminopropyl group and the peptide to be synthesized. The amino end of the spacer was deprotected and coupled to NVOC-Leucine. The entire slide was then illuminated with 12 mW of 325 nm broadband illumination. The slide was then coupled with NVOC-Phenylalanine and washed. The entire slide was again illuminated, then coupled to NVOC-Glycine and washed. […]
The resulting fluorescence scan is shown in FIG. 13C, and the scale for the fluorescence intensity is again given on the right. […]

[2] = system: antibody 3E7; assay: Fluorescence scan of 50 μm YGGFL/PGGFL checkerboard array probed with antibody 3E7 and fluoresceinated goat anti-mouse antibody; assay type: binding; settings: 2 μg/ml 3E7; 50 μm checkerboard
Procedure: FIG. 11 is a flow chart illustrating another example of the invention. Carboxy-activated NVOC-leucine was allowed to react with an aminated substrate. The carboxy activated HOBT ester of leucine and other amino acids used in this synthesis was formed by mixing 0.25 mmol of the NVOC amino protected amino acid with 37 mg HOBT (1-hydroxybenzotriazole), 111 mg BOP (benzotriazolyl-n-oxy-tris (dimethylamino)-phosphoniumhexa-fluorophosphate) and 86 μl DIEA (diisopropylethylamine) in 2.5 ml DMF. The NVOC protecting group was removed by uniform illumination. Carboxy-activated NVOC-phenylalanine was coupled to the exposed amino groups for 2 hours at room temperature, and then washed with DMF and methylene chloride. Two unmasked cycles of photodeprotection and coupling with carboxy-activated NVOC-glycine were carried out. The surface was then illuminated through a chrome on glass 50 μm checkerboard pattern mask. Carboxy-activated Na-tBOC-O-tButyl-L-tyrosine was then added. […]
The array of pentapeptides was probed with a mouse monoclonal antibody directed against β-endorphin. […] The surface was scanned with an epi-fluorescence microscope. […] The height of each spike in this display is linearly proportional to the integrated fluorescence intensity in a 2.5 μm pixel. […] There is little variation in the fluorescence intensity of different YGGFL squares. […]

[3] = system: anti-dynorphin B murine monoclonal antibody; assay: 4×10 peptide array related to dynorphin B screened with anti-dynorphin B antibody and labeled goat anti-mouse antibody; assay type: binding; settings: FIG. 30
Excerpt: An array of peptides synthesized using the general protection-deprotection technology outlined above. Referring to FIG. 30, the following peptides were synthesized: row 1=RXFKVVT; row 2=RQXFKVVT; row 3=RQXKVVT; and row 4=RXKVVT. In each row, “X” represents a group of four amino acids, which were simultaneously added to the immobilized peptide. The particular group of amino acids used as “X” on a given block are identified by column number as follows: column 1 [G,A,R,K in a ratio 1:1:1:1], column 2 [null]; column 3 [C,M,S,T in the ratio 1:1:1:5]; column 4 [null]; column 5 [F,Y,W,H in the ratio 1:1:1:1]; column 6 [null]; column 7 [D,E,N,Q in the ratio 1:1:1:1]; column 8 [null]; column 9 [V,L,I,P in the ratio 2:1:4:1]; and column 10 [null].
After these peptides were synthesized, they were screened with an anti-dynorphin B murine monoclonal antibody and then exposed to a fluorescently labeled goat anti-mouse antibody. […] Other strongly labeled regions, include column 7, row 1 and column 5, row 3, each of which contains some peptides having the above binding epitope. It should be noted that the varying ratios of some of the amino acids within a given group were necessary to obtain roughly equal binding efficiencies among the four amino acids.

[4] = system: anti-dynorphin B monoclonal antibody; assay: Dynorphin B deletion peptide array, relative binding of anti-dynorphin B monoclonal antibody by fluorescence intensity
Procedure: The binding epitope on dynorphin B for the anti-dynorphin B antibody described above was determined by deleting various amino acids and combinations of amino acids from the overall sequence of dynorphin B. The peptides containing these various deletions were prepared on a substrate by the general protection-deprotection methods described above. Then the substrate was exposed to the anti-dynorphin B monoclonal antibody and a fluorescence image was produced as shown in FIG. 33.
From the intensity distribution contained in this plot, it was possible to determine the relative binding affinity to various of the peptides.

[5] = system: antibody 3E7; settings: known from Meo et al., Proc. Natl. Acad. Sci. USA (1983) 80:4084; cited from earlier work
[6] = system: Herz antibody; assay: 50 μm checkerboard of YGGFL and YPGGFL, antibody fluorescence plot; assay type: binding, mouse
[7] = system: Herz antibody; assay: Array of sixteen amino acid sequences, relative binding to Herz antibody by fluorescence; set-up: species or system mouse; settings: FIG. 17
Excerpt: Using techniques similar to those set forth above, an array of 16 different amino acid sequences (replicated four times) was synthesized on each of two glass substrates. The sequences were synthesized by attaching the sequence NVOC-GFL across the entire surface of the slides. Using a series of masks, two layers of amino acids were then selectively applied to the substrate. Each region had dimensions of 0.25 cm×0.0625 cm. The first slide contained amino acid sequences containing only L amino acids while the second slide contained selected D amino acids. FIGS. 15A and 15B illustrate a map of the various regions on the first and second slides, respectively. The patterns shown in FIGS. 15A and 15B were duplicated four times on each slide. The slides were then exposed to the Herz antibody and fluorescein-labeled goat anti-mouse.
FIG. 16 is a fluorescence plot of the first slide, which contained only L amino acids. Light shading indicates strong binding (149,000 counts or more) while black indicates little or no binding of the Herz antibody (20,000 counts or less). The bottom right-hand portion of the slide appears “cut off” because the slide was broken during processing. […]
FIG. 17 is a fluorescence plot of the second slide. […]
Table 2 lists the various sequences tested in order of relative fluorescence, which provides information regarding relative binding affinity. […]

## GGFL: tetrapeptide, SEQ ID NO:15
[1]
  recognition by Herz antibody: not recognized

## Pro-Gly-Gly-Phe-Leu (PGGFL)
[2]
  binding of antibody 3E7 to surface peptide: does not bind

## RQFKVVT
[3]
  fluorescence labeling of array region: brightest region
[4]; mean ± spread over N synthesis sites
  RELATIVE INTENSITY: 93.6 ± 10.0
[4]; second value in parentheses
  RELATIVE INTENSITY, value in parentheses (ADJUSTED): (96.2 ± 7.1)

## YGGFM: SEQ ID NO:21, the immunogen used to obtain antibody 3E7
[5]
  affinity of binding by antibody 3E7: nanomolar affinity

## YPGGFL: peptide, SEQ ID NO:3
[6]
  recognition / binding by the antibody: does not bind significantly

## YpGFL: SEQ ID NO:24; lower case letters represent D-amino acids (Y[dP]GFL)
[7]
  binding of Herz antibody, second slide (selected D amino acids): Significant binding
